This note sets out measurements from paper PMC11574108, “4-Furanylvinylquinoline derivative as a new scaffold for the design of oxidative stress initiator and glucose transporter inhibitor drugs” (Scientific Reports, 2024).

Assay type in all cases: cell-based, human
One test relates to U-251. Description: Cell cycle assay (flow cytometry). Conditions: 2xIC50, 24-h treatment; control 20.44%. Here is the method:
(§1) The cells were seeded in 35 mm Petri dishes, 200,000 cells per dish, and incubated overnight under standard conditions at 37 °C. […] After a 24-h incubation, the experiment was carried out using a Muse™ Cell Cycle Kit (Millipore) according to the available procedure. Briefly, the cells were detached and collected in Eppendorf tubes. The samples were then washed with cold phosphate-buffered saline (PBS), centrifuged at 300 g (5 min), and fixed in ice-cold 70% ethanol. The cells were stored at -20 °C overnight. The next day, the samples were sequentially washed with cold PBS, centrifuged resuspended in 200 µL of Muse™ Cell Cycle Reagent, and incubated in the dark for 30 min at room temperature. The percentage of cells in specified cell cycle phases was estimated using a Muse™ Cell Analyzer (Millipore). The experiments were carried out three times.
(§2) When analysing the antiproliferative activity of the tested compounds, we decided to determine the molecular mechanism of action of the most promising derivative 13 in three cell lines with different statuses of p53, for which the derivative has the highest activity. In order to achieve this goal, we started by studying the changes in the cell cycle in order to determine why proliferation stops. To evaluate the effect of derivative 13 on the cell cycle progression, we used flow cytometry. After a 24-h treatment, we observed a significant inhibition in the G2/M phase in both HCT 116 cell lines (Fig. 4A).

The test system of the next test is HCT 116 p53+/+. Description: Cell cycle assay (flow cytometry). To be noted: 2xIC50, 24-h treatment; control 30.81%. Here is the method: as §1, §2
The next test relates to HCT 116 p53-/-. Put plainly: Cell cycle assay (flow cytometry). To be noted: 2xIC50, 24-h treatment; control 34.35%. The procedure:
as §1, §2

In another test the test system is CDK1. Description: qRT-PCR, CDK1 mRNA expression. Conditions: for CDK1 mRNA level vs control: HCT 116 p53-/-, 24 h. The procedure: The cells were seeded in 35 mm Petri dishes at a density of 500,000 cells and incubated at 37 °C for 24 h. The total RNA was isolated after incubation with solutions of 13 (0.5 µM and 1.0 µM) for 24 h and 48 h, respectively. The isolation from the samples was carried out according to a TRIzol™ Reagent protocol (Thermo Fisher Scientific). Synthesis of cDNA was performed with 2 µg of total RNA using a GoScript™ Reverse Transcriptase kit (Promega) with Oligo(dT)23 Primers. Real-Time PCR was carried out using a CFX96 Touch™ Real-Time PCR Detection System (Bio-Rad) in 10 µL reaction volume. Each sample contained SsoAdvanced™ Universal SYBR Green Supermix (Bio Rad), a specific primer pair mix (0.5 µM each), and 1 µL of cDNA. The reaction was performed under the following conditions: initial denaturation at 95 °C for 30 s; 40 cycles of denaturation at 95 °C for 15 s; annealing (primer-specific temperature) for 30 s, and extension at 72 °C for 60 s. The obtained data were analysed based on a comparison of the expression of the target genes and normalized to a reference gene (GAPDH) using the Livak-Schmittgen (2^−ΔΔCT) method. The experiments were performed at least three times.
In the next step, we decided to investigate the impact of derivative 13 on the mRNA level of CDK1 (the gene encoding one of the cell cycle regulation proteins) at various concentrations and time points (Fig. 4B). In the HCT 116 p53^+/+ cells after the application 0.5 µM of derivative 13, we noticed a slight increase in the expression of CDK1 after both 24 and 48-h. […] However, after a further incubation time, the mRNA level of this gene was similar to that in the untreated cells.

The subject of a further test is GLUT-1. Put plainly: Western blot, GLUT-1 protein level. Here is the method:
The cells (500,000) were seeded in 35 mm Petri dishes (Nunc) and incubated in a solution of the tested compound (0.5 µM and 1 µM) for 24 h and 48 h. The cells were then dissociated using trypsin, collected in Eppendorf tubes, and centrifuged at 2,000 rpm. Next, cell pellets were resuspended in complete RIPA buffer containing a Halt Protease Inhibitor Cocktail and Halt Phosphatase Inhibitor Cocktail along with 0.5 M EDTA (all reagents from Thermo Fisher Scientific) and lysed on ice for 20 min. Afterward, the lysates were sonicated and centrifuged at 10,000 rpm for 10 min at 4 °C. The obtained supernatants were collected for further analysis. The protein concentration was determined using a Micro BCA™ Protein Assay Kit (Thermo Fisher Scientific) according to the manufacturer’s procedure. Equal amounts of proteins (16 µg) were electrophoresed on SDS-Page gels and transferred onto nitrocellulose membranes. Novex Sharp Pre-Stained Protein Standard (Thermo Fisher Scientific) was used as a colored molecular weight marker. The membranes were blocked in 5% non-fat milk prepared in TPBS (PBS supplemented by 0.1% Tween-20) for 1 h. After blocking, the membranes were cut, and then incubated with specific primary monoclonal antibodies (all purchased from Cell Signaling) overnight at 4 °C. The antibodies for the target proteins (CDK1 Mouse mAb #9116, p53 Mouse mAb #2524, FAS Mouse mAb #8023, GLUT-1 Rabbit mAb #12939, HO-1 Rabbit mAb #5853, p21^Waf1/Cip1 Rabbit mAb #2947, PARP #9542) were diluted 1:1000, while the antibodies for the reference proteins (GAPDH Rabbit mAb #2118, β-actin Mouse mAb #3700, and vinculin Rabbit mAb #13901) were diluted 1:2000. The following day, the membranes were washed in TPBS and incubated with horseradish peroxidase (HRP)-conjugated secondary antibodies (Anti-rabbit IgG, HRP-linked Antibody #7074 or Anti-mouse IgG, HRP-linked Antibody #7076) for 1 h at room temperature. The membranes were then washed in TPBS and incubated with a SuperSignal™ West Pico Chemiluminescent Substrate (Thermo Fisher Scientific). Finally, the membranes were visualized using a ChemiDoc™ XRS + System (Bio-Rad). The experiments were carried out four to five times. The densitometric analysis was performed using ImageJ software (Wayne Rasband, National Institutes of Health, USA).
We, therefore, decided to test the effect of the tested compound on the level of the main glucose transporter, GLUT-1. […] The validity of the described conclusions was confirmed by the results that were obtained for doxorubicin. in which p53 activation occurred at both tested time points with a concomitant decrease in the GLUT-1 levels. […] The results that were obtained from the measurements of the expression of this protein were so interesting, and at the same time, inconclusive that we additionally decided to determine the effect of the tested derivative 13 on the expression of the genes encoding selected glucose transporters.

In the case of `O=[N+]([O-])c1ccc(/C=C/c2ccnc3ccccc23)o1` [Compound 13], the “percentage of cells in S phase” value in the test on U-251 is on record as 35.59%. In addition, the “population of cells in G2/M phase” value in the test with HCT 116 p53+/+ is 49.78%; in the test on HCT 116 p53-/-, 44.95%. Also, the “CDK1 mRNA level vs control” value in the test on CDK1 (0.5 µM) was “two-fold higher”; in the test on CDK1 (1 µM) it was “around one and the half times”. In addition, the “CDK1 mRNA expression vs control” value in the test on CDK1 (U-251, 24 h) was “greater than two-fold upregulation”. The “GLUT-1 protein level vs control” value was “decrease” with GLUT-1 (HCT 116 p53+/+, 24-h incubation); “rapid activation” with GLUT-1 (HCT 116 p53+/+, 48-h); “decrease” in the test with GLUT-1 (HCT 116 p53-/-). Also, in the test with GLUT-1 (U-251), the “GLUT-1 protein level vs untreated cells” value is “not detectable”.
